According to PubChem BioAssay AID463229 (Broad Institute, 2010):
Active and inactive are the calls of the source.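 Rule for the calls: active = compounds raising the signal whose fitted half-maximal concentration is at or below their top tested dose (cut at about 25 µM in these data); inconclusive = flat fit at 30 to 70% activity, or a poor fit; inactive = the rest.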

These compounds were tested on INS-1E rat beta cells, no cytokines, CellTiter-Glo ATP, 48 h (assay: cytokine-free beta-cell viability effect – INS-1E rat cells, ATP luminescence, cherry pick, counter-screen for beta-cell apoptosis protection project, dose response (AID 463229)).

Structure (SMILES)	AC50
COc1ccc(CCNc2ccc(C(CC(N)=O)NC(=O)c3ccc(Br)cc3)cc2[N+](=O)[O-])cc1 (stereo not drawn)	16.8 µM
O=C(N/N=C/c1cc(Br)c(Br)s1)c1ccncc1	9.72 µM
O=C(c1cc(COc2cccc(C(F)(F)F)c2)on1)N1CCC(c2ccncc2)CC1	7.14 µM
On1onc2c3cc(-c4ccccc4)nc3ccc21	5.23 µM
O=S(=O)(c1ccc(Cl)cc1)N1CCN(c2ncnc3sccc23)CC1	6.65 µM
COC(=O)c1nc(-c2ccc3c(n2)C(=O)C(N)=C(OC)C3=O)c(N)c(-c2ccc(OC)c(OC)c2O)c1C	6.46 µM
C=C1C(=O)O[C@@H]2C[C@@H](C)[C@@H]3C=CC(=O)[C@@]3(C)[C@@H](OC(=O)CC(=O)O[C@H]3[C@@H]4C(=C)C(=O)O[C@@H]4C[C@@H](C)[C@@H]4C=CC(=O)[C@]43C)[C@H]12	0.386 µM
Clc1cccc(N=C2NN=C(c3ccc4c(c3)OCCO4)CS2)c1	1.76 µM
C/C(=N\NC(=O)c1cc2ccccc2cc1O)c1ccccn1	2.66 µM
O=C(N/N=C/c1cc(Br)cc(Br)c1O)c1ccncc1	7.34 µM
CCOC(=O)c1c(NC(=O)C[n+]2ccc(Cc3ccccc3)cc2)sc(C)c1C	10.9 µM
CCCOc1ccc(Br)cc1CSC(=N)N	8.01 µM
CCOc1ccc(S(=O)(=O)N2CCCCC2)cc1NC(=O)CN1CCCC1c1cccs1 (stereo not drawn)	5.24 µM
Cc1ccc(NC(=O)C2CCN(S(=O)(=O)c3ccc(N4CCCC4=O)cc3)CC2)cc1Cl	2.37 µM
Cc1ccc(N=Cc2c(C)[nH]n(-c3nc4ccccc4[nH]3)c2=O)cc1	1.85 µM
COc1ccc(CCNc2ncnc3sc(C)cc23)cc1OC	1.33 µM
CCCCCc1ccc(-c2cn(CN3C(=O)c4ccccc4C3=O)nn2)cc1	1.23 µM
Cc1ccc(-c2csc(NC(=O)c3c(C)noc3C)n2)s1	4.85 µM
Nc1ccc2c(c1)C(=O)C(=O)c1ccccc1-2	1.2 µM
CCCCCCn1c2c(c(=N)c3c1CCC3)CCC2	1.88 µM
O=C(Nc1ccc(N2CCN(Cc3ccccc3Cl)CC2)cc1)c1cccnc1	5.98 µM
Clc1cc2cccnc2c2ncccc12	15 µM
O=C(N/N=C/c1ccc(O)c2ncccc12)c1cccc(Br)c1	3.05 µM
COc1cccc(-c2nc(-c3ccc(NC(=O)c4cccnc4)cc3)no2)c1	2.14 µM
COc1ccccc1C(CCNCc1ccc(N(C)C)cc1)c1ccc(OC(C)C)cc1 (stereo not drawn)	9.78 µM
COc1ccc(O)c(C(=O)c2cnc3nc4ccccc4n3c2)c1	6.33 µM

Structure (SMILES)	AC50
CCOC(=O)c1cnc(-n2nc(C)cc2C)nc1NC1CCCC1	2.38 µM
Cc1ccc(C[n+]2cccc(-c3ccccc3)c2)c(C)c1	5.1 µM
COc1ccc(N=Nc2ccc(O)c3ncccc23)cc1	4.26 µM
CC1=NN(c2ccc(C)c(C)c2)C(=O)/C1=C\C=C\c1ccc([N+](=O)[O-])o1	7.6 µM
c1ccc(-c2nc(N3CCCCCC3)c3ccccc3n2)nc1	6.8 µM
COc1ccccc1CNCC(O)Cn1c2ccccc2c2ccccc21 (stereo not drawn)	12.9 µM
Cc1ccc2oc(-c3ccc(NC(=O)c4cccnc4)cc3)nc2c1	19.1 µM
CCc1ccc(OCC(=O)NC(NC(=S)Nc2ccc(C)cc2C)C(Cl)(Cl)Cl)cc1 (stereo not drawn)	11.2 µM
CCC1(c2ccc(F)cc2)NC(=O)N(CC(=O)Nc2ccc(-c3nc4ccc(C)cc4s3)cc2)C1=O (stereo not drawn)	12.4 µM
CC(NCC(O)COCCC12CC3CC(CC(C3)C1)C2)c1ccccc1 (stereo not drawn)	8.29 µM
O=C(CC(O)(C(F)(F)F)C(F)(F)F)Nc1ccc(Cl)c(Cl)c1	2.73 µM
C/C(=N\Nc1nc2ccccc2[nH]1)c1ccccn1	0.56 µM
O=C(Nc1cccc(Cl)c1)Nc1nnc(-c2ccncc2)s1	6.36 µM
COc1ccc(C(=O)N/N=C/c2cc(Br)ccc2O)cc1OC	7.2 µM
Cc1nc2c3cc(F)ccc3n(Cc3ccccc3)c2s1	> 26 µM (inactive)
CCOC(=O)c1nc(NNC(=O)c2ccc([N+](=O)[O-])cc2)sc1C	7.04 µM
CCOc1ccc(S(=O)(=O)N(C(=O)c2ccco2)c2cc3sc(=O)oc3c3ccccc23)cc1	12.7 µM
Cc1ccc(-c2cc(-c3ccc(C)cc3)[n+](-c3ccccc3)c(-c3ccc(C)cc3)c2)cc1	0.577 µM
COc1ccccc1NC(=O)Cn1cc(C(=O)c2ccco2)c2ccccc21	8.7 µM
O=C(Nc1cccc([N+](=O)[O-])c1)c1cc2ccccc2cc1O	4.38 µM
Cc1ccc(Nc2c(-c3ccccn3)nc3ccc(C)cn23)cc1	7.28 µM
N=c1c2c(n(Cc3ccc(Br)cc3)c3c1CCC3)CCCC2	3.04 µM
COc1ccc(C)cc1Nc1n[n+](-c2ccccc2)c(-c2c(OC)ccc3ccccc23)s1	6.88 µM
O=C(Nc1nc(-c2ccccn2)cs1)c1ccc([N+](=O)[O-])o1	6.03 µM
CCCCCCCCCCOC(=O)Cn1c(COc2ccccc2OC)[n+](C)c2ccccc21	1.09 µM
CC(C)(C)C(=O)NC(=S)NNC(=O)c1ccc(-c2ccccc2)cc1	5.71 µM

Structure (SMILES)	AC50
Cc1ccc(-c2c[n+]3c(n2-c2ccccc2)SCC3)cc1	2.63 µM
N#CC(C#N)=C(Nc1ccc(F)cc1)SCc1cccc(F)c1	5.08 µM
Clc1ccc(C(c2ccc(Cl)cc2)n2cc[n+](CC(OCc3ccc(Cl)cc3Cl)c3ccc(Cl)cc3Cl)c2)cc1 (stereo not drawn)	3.69 µM
CC(=O)c1cccc(NS(=O)(=O)c2ccc(N/C=C/C(=O)c3ccc(F)cc3)cc2)c1	5.02 µM
Cc1ccccc1-c1cc(C(=O)Nc2sc(C)c(C)c2C(N)=O)c2ccccc2n1	6.8 µM
CCCCCc1cc(=O)oc2c(C(CCN3CCCCC3)c3ccc4c(c3)OCO4)c(OC)cc(OC)c12 (stereo not drawn)	7.89 µM
CCN1CCN(Cc2ccc(NC(=O)c3ccc(C)c(NC(=O)c4c[nH]c5cc(C(F)(F)F)ccc5c4=O)c3)cc2C(F)(F)F)CC1	7.07 µM
COc1ccc(C(=O)N/N=C(\C)c2ccccn2)cc1OC	2.54 µM
Cc1ccn2c(Nc3ccccc3C)c(-c3ccccn3)nc2c1	9.55 µM
O=C(Nc1cc(Sc2ccccn2)cc([N+](=O)[O-])c1)c1ccc(Cl)cc1	8.9 µM
Cc1nc2c(-c3ccc(Cl)cc3)c(C)[nH]n2c(=O)c1Cc1ccccc1	5.46 µM
Cc1ccc(-c2csc(N3CCC(NS(=O)(=O)c4ccc5c(c4)OCCO5)CC3)n2)cc1	6.85 µM
Oc1cccc(/C=N/NC(=S)Nc2cccnc2)c1O	8.6 µM
O=C(CCC(=O)Nc1ccc(Br)cc1)N/N=C/c1ccccc1O	14.6 µM
CC1Sc2ccc(S(=O)(=O)N3CCC(C(=O)Nc4ccc(Cl)cc4)CC3)cc2NC1=O (stereo not drawn)	6.13 µM
Nc1c(N(CCC2=CCCCC2)C(=O)COc2ccc(F)cc2)c(=O)[nH]c(=O)n1Cc1ccccc1	4.49 µM
CCC[N+]1(CC#CCC(c2ccccc2)c2ccccc2)CCCCC1	2.03 µM
COc1ccc(C2NCCc3c2[nH]c2ccccc32)cc1COc1ccc(F)cc1 (stereo not drawn)	14 µM
CCCCNc1c(-c2cccc(-c3ccc(OC)cc3)c2)nc2ccc(C)cn12	7.32 µM
c1ccc(CNc2nc(NCc3ccccc3)c3ccccc3n2)cc1	11.1 µM
COc1cc(OC)nc(-n2ncc(Br)c(Br)c2=O)n1	6.66 µM
COc1ccc(CCNc2cc(N3CCN(C(=O)c4ccccc4OC)CC3)ccc2[N+](=O)[O-])cc1OC	8.74 µM
O=C(Nc1nc2ccc(F)cc2s1)c1ccccn1	4.43 µM
Nc1nc2ccccc2n1/N=C/c1ccc([N+](=O)[O-])s1	7.19 µM
COc1ccc(-[n+]2c(-c3ccccc3)cc(-c3ccccc3)cc2-c2ccccc2)cc1	1.71 µM
Cc1sc2ncnc(NCC(O)c3ccc([N+](=O)[O-])cc3)c2c1C (stereo not drawn)	5.1 µM
